Measurements as given in patent US20070060605A1, “Compositions and methods for inhibiting platelet activation and thrombosis” (priority 2001, published 2007).

Columns and labels:
[1] = system: platelet protein palmitoylation; assay: Incorporation of [3H]-palmitate into platelet proteins; format: cell-based; conditions: 100 μM compound; 20 μM or 200 μM SFLLRN
Experimental: Platelets were labeled with [^3H]-palmitate for 2 hours in the absence (lanes 1, 2, and 3) or presence (lanes 4, 5, and 6) of 100 μM JF081204{5C} for 2 hours. Labeled platelets were then incubated with 0 μM ([…]), 20 μM (lanes 2 and 5), or 200 μM SFLLRN (lanes 3 and 6). Platelet samples were lysed, separated by SDS-PAGE, Western blotted, and visualized with a tritium imager screen (Panel a). The activation of platelets by SFLLRN led to an increase incorporation of [^3H]-palmitate into platelet proteins, whereas the presence of JF081204{5C} inhibited this activation-dependent [^3H]-palmitate incorporation (Panel b). Western blot membrane from panel (a) was stained with Ponceau S to visualize proteins in the platelet lysates.
The incorporation of [^3H]-palmitate into platelet intracellular proteins was examined to determine the effect of JF081204{5C} on platelet protein palmitoylation. […] Exposure of platelets to either 20 μM or 200 μM SFLLRN increased the intensity of the labeling. Incubation of platelets with 100 μM of JF081204{5C} inhibited the increase in [^3H]-palmitate incorporation induced by either 20 μM or 200 μM SFLLRN.

[2] = system: platelet GPIIbIIIa; assay: SFLLR-induced GPIIbIIIa activation (PAC-1 antibody, flow cytometry); format: cell-based, human; conditions: PAC-1 antibodies
Experimental: In order to assay platelet activation by cell surface marker expression, fresh PRP is isolated from donors who have not ingested aspirin for two weeks prior to donation. PRP (40 μl) is incubated with known or suspected inhibitor in DMSO or DMSO alone for 15 min. The sample is then incubated with the indicated agonist (e.g., SFLLR) for 10 min. Following incubation of the sample with the indicated agonist, 10 μl of reaction mixture is transferred to 5 μl of phycoerythrin (PE)-conjugated AC 1.2 anti-P-selectin antibody (for assessment of P-selectin surface expression) or fluorescein isothiocyanate (FITC)-conjugated PAC-1 antibody (for assessment of GPIIbIIIa activation). PBS (500 μl) is added to the sample after a 20 min incubation and the platelets are analyzed immediately by flow cytometry. Flow cytometry can be performed using, for example, a Becton-Dickinson FACSCalibur flow cytometer or its equivalent. Fluorescent channels are set at logarithmic gain. Ten thousand particles are acquired for each sample. A 530/30 band pass filter is used for FL-1 fluorescence. A 585/42 band pass filter is used for FL-2 fluorescence. FITC is measured in the FL-1 channel and PE is measured in the FL-2 channel. Data are analyzed using, for example, CellQuest software on a Macintosh PowerPC, or their equivalents.
Compounds were also tested by flow cytometry for the inhibition of SFLLR-induced GPIIbIIIa activation and P-selectin expression. In these experiments, freshly obtained PRP was prepared from healthy volunteers who had not ingested aspirin for two weeks prior to donation. Forty μl of PRP was incubated with inhibitor in DMSO or DMSO alone for 15 min. The sample was then incubated with the indicated agonist for 10 min. Following incubation of the sample with the indicated agonist, 10 μl of reaction mixture was transferred to 5 μl of PE-conjugated AC1.2 anti-P-selectin antibody (for assessment of P-selectin surface expression) or FITC-conjugated PAC-1 antibody (for assessment of GPIIbIIIa activation). PBS (500 μl) was added to the sample after a 20 min incubation and the platelets were analyzed immediately by flow cytometry. Flow cytometry was performed using a Becton-Dickinson FACSCalibur flow cytometer. Fluorescent channels were set at logarithmic gain. Ten thousand particles were acquired for each sample. A 530/30 band pass filter was used for FL-1 fluorescence. A 585/42 band pass filter was used for FL-2 fluorescence. FITC was measured in the FL-1 channel and PE was measured in the FL-2 channel. Data were analyzed using CellQuest software on a MacIntosh PowerPC.

[3] = biological target: T1, human platelet PDE5 (Homo sapiens, UniProt O76074); assay: Phosphodiesterase inhibition, PDE5; format: biochemical; conditions: up to 1 μM
T1 construct: human platelet PDE5; from tissue; host or cells: human platelets
Experimental: Intracellular cAMP generated by adenylyl cyclase in platelets is actively hydrolyzed by phosphodiesterase. […] Human platelets express PDE2, PDE3, and PDE5. Therefore, the compound was tested for its inhibitory effect on these phosphodiesterases using methods as described in Example 3.

Row | SMILES | Increase in [3H]-palmitate incorporation induced by SFLLRN [1] | SFLLR-induced αIIbβ3 activation [2] | Inhibition of human platelet PDE5 ([3]; listed as Pyridazinone compound) | Inhibition of human platelet PDE5 ([3]; listed as pyridazinone compound)
1 | CCCCCn1c2c(c(=N)c3ccccc31)CCC2 [JF081204{5C}] | inhibited |  |  | 
2 | CC1CC(=O)NN=C1c1ccc(N)c([N+](=O)[O-])c1 (stereo not shown) [6-(4-Amino-3-nitro-phenyl)-5-methyl-4,5-dihydro-2H-pyridazin-3-one] |  | inhibited | No significant inhibition | little inhibition
